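Growth conditions: 96-well plates. Treatment: test compound, 48 hours, 5 concentrations. Analysis: linear interpolation between bracketing concentrations; unreached endpoints set to highest concentration. GI50: concentration for 50% inhibition of growth.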 Active and inactive are the calls of the source. Rule as the data show it: active = GI50 up to about 1.1 µM and inactive = higher. Where a SMILES comes first, the peptide text is derived from it. The star is where a group is joined. Boc = CC(C)(C)OC(=O)*; Bn = c1ccc(C*)cc1
Columns and labels:
Assay in all cases: growth of human tumour cells (NCI), 48 h
[1] = test system: MDA-MB-231
[2] = test system: UACC-257
[3] = test system: HCT-116
[4] = test system: UO-31
[5] = test system: LOX IMVI
[6] = test system: HL-60
[7] = test system: MDA-N
[8] = test system: NCI-H460
[9] = test system: OVCAR-4
[10] = test system: RPMI-8226
[11] = test system: HT-29
[12] = test system: NCI-H522
[13] = test system: DU-145
[14] = test system: SR
[15] = test system: MDA-MB-435
[16] = test system: A549
[17] = test system: HOP-92
[18] = test system: UACC-62
[19] = test system: U-251
[20] = test system: SNB-75

SMILES | GI50 [1] | GI50 [2] | GI50 [3] | GI50 [4] | GI50 [5] | GI50 [6] | GI50 [7] | GI50 [8] | GI50 [9] | GI50 [10] | GI50 [11] | GI50 [12] | GI50 [13] | GI50 [14] | GI50 [15] | GI50 [16] | GI50 [17] | GI50 [18] | GI50 [19] | GI50 [20]
COc1cc(C2SCC(=O)N2Cc2ccccc2)cc(OC)c1OC (stereo not given) | > 100 µM (inactive) | > 100 µM (inactive) | > 100 µM (inactive) | > 100 µM (inactive) | > 100 µM (inactive) | > 100 µM (inactive) | > 100 µM (inactive) | > 100 µM (inactive) | > 100 µM (inactive) | > 100 µM (inactive) | > 100 µM (inactive) | 90.4 µM (inactive) | 22.1 µM (inactive) | > 100 µM (inactive) | > 100 µM (inactive) | > 100 µM (inactive) | 13.2 µM (inactive) | 97.9 µM (inactive) | > 100 µM (inactive) | 
COc1cc2cc(C(=O)N3CC(COS(C)(=O)=O)c4ccc(O)cc43)[nH]c2c(OC)c1OC (stereo not given) | < 0.0001 µM (active) | 0.000537 µM (active) | < 0.0001 µM (active) | < 0.0001 µM (active) | < 0.0001 µM (active) | < 0.0001 µM (active) | < 0.01 µM (active) |  | < 0.0001 µM (active) | < 0.0001 µM (active) | < 0.0001 µM (active) | < 0.0001 µM (active) | < 0.0001 µM (active) | < 0.0001 µM (active) | < 0.0001 µM (active) | < 0.0001 µM (active) | < 0.0001 µM (active) | < 0.0001 µM (active) | < 0.0001 µM (active) | 0.000172 µM (active)
CCOC(=O)CCC(NC(=O)c1ccc(OCc2nc3cc(C(F)(F)F)ccc3nc2-c2ccccc2)cc1)C(=O)OCC (stereo not given) | > 100 µM (inactive) | 67.3 µM (inactive) | 52.2 µM (inactive) | 37.9 µM (inactive) | > 100 µM (inactive) | > 100 µM (inactive) | 55.5 µM (inactive) | 52.1 µM (inactive) | 13.7 µM (inactive) | 43.9 µM (inactive) | > 100 µM (inactive) | > 100 µM (inactive) | 86.1 µM (inactive) | 16.4 µM (inactive) | 84.1 µM (inactive) | > 100 µM (inactive) | 79.6 µM (inactive) | 52.8 µM (inactive) | > 100 µM (inactive) | 4.07 µM (inactive)
CCCCCCCCCCCCCCCCP(=O)(O)OCC(N)C(=O)O (stereo not given) | 32.1 µM (inactive) | > 100 µM (inactive) | 19.6 µM (inactive) | 16 µM (inactive) | 17.1 µM (inactive) | 18.7 µM (inactive) | 33.2 µM (inactive) | 22.8 µM (inactive) | 37.9 µM (inactive) | 21 µM (inactive) | 55.3 µM (inactive) | 12.1 µM (inactive) | > 100 µM (inactive) | 13.7 µM (inactive) | 37.3 µM (inactive) | 46.2 µM (inactive) | 23.7 µM (inactive) | 44.5 µM (inactive) | 29.8 µM (inactive) | 26.9 µM (inactive)
CC1CN(CCO)CC(C)O1 (stereo not given) | > 100 µM (inactive) | > 100 µM (inactive) | > 100 µM (inactive) | > 100 µM (inactive) |  | > 100 µM (inactive) | > 100 µM (inactive) | > 100 µM (inactive) | > 100 µM (inactive) | > 100 µM (inactive) | > 100 µM (inactive) | > 100 µM (inactive) | > 100 µM (inactive) | > 100 µM (inactive) | > 100 µM (inactive) | > 100 µM (inactive) | > 100 µM (inactive) | > 100 µM (inactive) | > 100 µM (inactive) | > 100 µM (inactive)
CCCCCc1c2nc(c(CCCCC)c3ccc([nH]3)c(CCCCC)c3nc(c(CCCCC)c4ccc1[nH]4)C=C3)C=C2 | > 100 µM (inactive) | > 100 µM (inactive) | > 100 µM (inactive) | > 100 µM (inactive) | > 100 µM (inactive) | > 100 µM (inactive) | > 100 µM (inactive) | > 100 µM (inactive) | > 100 µM (inactive) | > 100 µM (inactive) | > 100 µM (inactive) | > 100 µM (inactive) | > 100 µM (inactive) | > 100 µM (inactive) | > 100 µM (inactive) | > 100 µM (inactive) | > 100 µM (inactive) | > 100 µM (inactive) | > 100 µM (inactive) | > 100 µM (inactive)
COc1cccc2c1OC1(C=C2)Oc2ccccc2C(=O)N1C (stereo not given) | 27.2 µM (inactive) | 44.8 µM (inactive) | 37.6 µM (inactive) | 19.8 µM (inactive) | 2.05 µM (inactive) | 19.3 µM (inactive) | 15 µM (inactive) | 32.4 µM (inactive) | 45.3 µM (inactive) | 27.9 µM (inactive) | 28.5 µM (inactive) | 19.1 µM (inactive) | 34 µM (inactive) | 3.55 µM (inactive) | 21.6 µM (inactive) | 41.6 µM (inactive) | 35.2 µM (inactive) | 40.6 µM (inactive) | 39.8 µM (inactive) | 16.3 µM (inactive)
C/C(=C1/N=C(c2ccccc2)OC1=O)c1cccs1 | 66.7 µM (inactive) | > 100 µM (inactive) | > 100 µM (inactive) |  | > 100 µM (inactive) | > 100 µM (inactive) | > 100 µM (inactive) | > 100 µM (inactive) | 37.3 µM (inactive) | > 100 µM (inactive) | > 100 µM (inactive) | 59.8 µM (inactive) | > 100 µM (inactive) | > 100 µM (inactive) | > 100 µM (inactive) | 64.7 µM (inactive) | > 100 µM (inactive) | > 100 µM (inactive) | > 100 µM (inactive) | 76.4 µM (inactive)
CC1(C)OCC(C2OC(C)(C)OC2[C@H]2O[C@@]3(O)[C@H]4[C@H](C=CC[C@@H]42)[C@@H](OCc2ccccc2)[C@H](OCc2ccccc2)[C@H]3OCc2ccccc2)O1 (stereo not given in full) | 94.8 µM (inactive) | 18.8 µM (inactive) | 16.1 µM (inactive) | 31 µM (inactive) | 22.6 µM (inactive) | 14.4 µM (inactive) | 17.9 µM (inactive) | 17.9 µM (inactive) | 41 µM (inactive) |  | 17.9 µM (inactive) | 37.1 µM (inactive) | 61 µM (inactive) | 11 µM (inactive) | 31.7 µM (inactive) | 24.8 µM (inactive) | 44.2 µM (inactive) | 19.3 µM (inactive) | 53.6 µM (inactive) | 27.9 µM (inactive)
CC1=CC(=O)CC(C)(C)C1/C=C/C(C)=C/C=C/C(C)=C/C=C/C=C(C)/C=C/C=C(C)/C=C/C1=C(C)CC(O)CC1(C)C (stereo not given) | 64.3 µM (inactive) | 37.7 µM (inactive) | 18.4 µM (inactive) | 44.8 µM (inactive) | 31.3 µM (inactive) | 18.6 µM (inactive) | 29.9 µM (inactive) | 38.3 µM (inactive) | 37.9 µM (inactive) | 9.31 µM (inactive) | 30.8 µM (inactive) | 23.2 µM (inactive) | 24.4 µM (inactive) | 0.0422 µM (active) | 25 µM (inactive) |  | 27.3 µM (inactive) |  | 37.8 µM (inactive) | 
CCCc1nc2c(n1CC)C(=O)c1ccccc1C2=O | 79.6 µM (inactive) | 18 µM (inactive) | 39.3 µM (inactive) |  |  | 44.4 µM (inactive) | 20 µM (inactive) | 37.2 µM (inactive) | 32.1 µM (inactive) | 31.3 µM (inactive) | 18.5 µM (inactive) | 24.3 µM (inactive) | 74.5 µM (inactive) | 42.3 µM (inactive) | 17.5 µM (inactive) | 46.5 µM (inactive) | > 10 µM (inactive) | 26 µM (inactive) | 59.3 µM (inactive) | 24.8 µM (inactive)
Cc1ccc(-c2c(C#N)c(S)n(NS(=O)(=O)c3ccccc3)c(=O)c2C#N)cc1 | 26.1 µM (inactive) | 61 µM (inactive) | 26.9 µM (inactive) | 20.1 µM (inactive) | 28.5 µM (inactive) | 16.7 µM (inactive) | 29.7 µM (inactive) | 15.6 µM (inactive) | 34.4 µM (inactive) | 23.3 µM (inactive) |  | 19.5 µM (inactive) | 53.3 µM (inactive) | 15.1 µM (inactive) | 23 µM (inactive) | 39.7 µM (inactive) | 24.1 µM (inactive) | 23.9 µM (inactive) | 24.8 µM (inactive) | 42.2 µM (inactive)
CC(C)(Cl)C(Br)CCC(Br)(CCl)C(Cl)CBr (stereo not given) | > 10 µM (inactive) | > 10 µM (inactive) |  | > 10 µM (inactive) | > 10 µM (inactive) | > 10 µM (inactive) | > 10 µM (inactive) | > 10 µM (inactive) | > 10 µM (inactive) | > 10 µM (inactive) | > 10 µM (inactive) | > 10 µM (inactive) | > 10 µM (inactive) | > 10 µM (inactive) | > 10 µM (inactive) |  | > 10 µM (inactive) |  | > 10 µM (inactive) | > 10 µM (inactive)
COC(=O)C(CC(C)C)NC(=O)CNC(=O)C(Cc1ccc(OCc2ccccc2)cc1)NC(=O)C(COCc1ccccc1)NC(=O)OC(C)(C)C (stereo not given) (Boc-S(Bn)Y(Bn)GL-OMe; configuration not given here) | > 100 µM (inactive) |  | > 100 µM (inactive) | > 100 µM (inactive) | 58.5 µM (inactive) | 4.56 µM (inactive) | > 100 µM (inactive) | > 100 µM (inactive) | > 100 µM (inactive) | 9.51 µM (inactive) | > 100 µM (inactive) | 72.8 µM (inactive) | > 100 µM (inactive) | > 100 µM (inactive) | > 100 µM (inactive) | > 100 µM (inactive) | > 100 µM (inactive) | > 100 µM (inactive) | > 100 µM (inactive) | > 100 µM (inactive)

From ChEMBL document CHEMBL1201862, “PubChem BioAssay data set” (2004)
